Columns and labels:
[1] = tested on: pSTAT5; assay: Phospho-STAT5 western blot in hematologic tumor cell lines after treatment; assay type: cell-based; details: 0.2 μM or 1 μM, 4 hr and 24 hr
Experimental: (§1) […] hematologic tumor cell lines (5 positive for pSTAT5 (AML-193, Hel 92.1.7, Set2, TF-1 and UKE-1) and 4 negative for pSTAT5 (RPM18226, U937, Relt and PL-21) were treated with (R)-3-cyclopentyl-3-[4-(7H-pyrrolo[2,3-d]pyrimidin-4-yl)-1H-pyrazol-1-yl]propanenitrilem, 0.2 μM or 1 μM, and samples were collected at 4 hr and 24 hr after treatment. Phospho-STAT5 was examined by western blot analysis, and the expression of the four signature genes was determined by qPCR. The RNA expression level (ΔCt) of each individual gene in the signature was determined by subtracting the average Ct for the signature gene from the average Ct of the two housekeeper genes (GUSB and TBP). For the normalized relative expression levels the DMSO control treatment ΔCt were set to one and all other treatments the gene Ct values are relative to this value.

[2] = tested on: four signature genes (PIM1, CISH, SOCS2, ID1); assay: qPCR expression of the four signature genes in hematologic tumor cell lines after treatment; assay type: cell-based; details: 0.2 μM or 1 μM, 4 hr and 24 hr
Experimental: as §1

[3] = tested on: UKE-1 tumor xenograft; assay: UKE-1 tumor xenograft study, modulation of 4-gene signature in tumor; assay type: in vivo, female NOD.SCID mice; details: single dose P.O. 60 mg/kg; tumor samples at 4 and 24 hours (FIG. 6)
Experimental: The modulation of gene signature by (R)-3-cyclopentyl-3-[4-(7H-pyrrolo[2,3-d]pyrimidin-4-yl)-1H-pyrazol-1-yl]propanenitrile (ruxolitinib) was further examined in vivo. UKE-1 cells were implanted in female NOD.SCID mice (Harlan) at 1x10e7 cells/mouse. Single dose of (R)-3-cyclopentyl-3-[4-(7H-pyrrolo[2,3-d]pyrimidin-4-yl)-1H-pyrazol-1-yl]propanenitrile was administered P.O. at 60 mg/kg when tumors reached ˜500 mg. Tumor samples were collected at 4 and 24 hours after treatment. The modulation of pSTAT5 in tumor lysate was examined by Western.

[4] = pSTAT5 negative cell lines (RPMI 8226 in FIG. 2A)
[5] = pSTAT5 positive cell lines (TF-1 in FIG. 2B)

## N#CC[C@H](C1CCCC1)n1cc(-c2ncnc3[nH]ccc23)cn1 [(R)-3-cyclopentyl-3-[4-(7H-pyrrolo[2,3-d]pyrimidin-4-yl)-1H-pyrazol-1-yl]propanenitrile]
[1]; [4]
  pSTAT5 modulation: no clear effect
[1]; [5]
  pSTAT5 modulation: down-modulated pSTAT5
[2]; [4]
  changes in signature gene expression: no clear effect
[2]; [5]
  expression of the signature genes: corresponding reduction of the expression of the signature genes
[3]
  modulation of 4-gene signature in tumor: consistent to that observed in vitro

Source: patent US20150299796A1, “PREDICTION OF TREATMENT RESPONSE TO JAK/STAT INHIBITOR” (priority 2012, published 2015)
